In article PMC13428274 (ACS infectious diseases, 2025):

Target: BlaR (Staphylococcus aureus, UniProt P18357)
Assay: SPR steady-state fit, immobilized sensor domain
Format: binding

Sequence of BlaR (P18357 332-585): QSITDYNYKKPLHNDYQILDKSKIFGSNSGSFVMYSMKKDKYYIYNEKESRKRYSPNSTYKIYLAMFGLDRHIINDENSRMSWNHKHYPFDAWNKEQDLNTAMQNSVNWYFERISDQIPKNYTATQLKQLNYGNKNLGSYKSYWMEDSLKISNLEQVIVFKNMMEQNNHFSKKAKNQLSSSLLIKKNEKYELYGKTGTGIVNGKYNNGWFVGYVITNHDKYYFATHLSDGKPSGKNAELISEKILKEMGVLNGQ

Cn1ncc2c(Nc3ccc(Br)cc3)nc(Nc3ccc(Br)cc3)nc21 [compound 1, N^4,N^6-bis(4-bromophenyl)-1-methyl-1H-pyrazolo[3,4-d]pyrimidine-4,6-diamine]
Kd: 31 ± 2 µM
